Data as given in US11472811B2, “Pyrazolotriazolopyrimidine derivatives as A2A receptor antagonist” (BEIGENE, LTD., priority 2018, dated 2022).

These compounds were tested against human A2A receptor (A2AR) (Homo sapiens (Human), UniProt P29274) (assay: Luciferase reporter assay (HEK293-A2AR-luc2p/CRE/Hygro cells)). Conditions: 3 nM CGS21680, 5 h incubation.
Assay type: cell-based
Method: HEK293 cells were maintained in Dulbecco's modified Eagle's medium (DMEM, Gibco) supplemented with 10% fetal bovine serum (FBS, Thermo Scientific), 100 units/mL penicillin (Gibco), and 0.1 mg/mL streptomycin (Gibco) in a humidified 37° C. environment with 5% CO2. Plasmid encoding wild-type human A2A receptor (A2AR) (in pcDNA3.1) was synthesized by Genscript (Nanjing, China). Transfection of the plasmids was performed in 6-well plates with 4×10^5 cells using Lipofectamin 2000 (ThermoFisher Scientific) according to the instruction of the manufacturer. Cell clones that stably express A2AR were established and maintained in the same complete medium as the HEK293 cells in addition of G-418 (Gibico). Expression level of A2AR in each single cell clone was determined using immunoblotting and FACS method. HEK293-A2AR stable cells were then transfected with pGL4.29[luc2P/CRE/Hygro] (Promega) luciferase reporter plasmid for establishing the HEK293-A2AR-luc2p/CRE/Hygro stable cell line.
HEK293-A2AR-luc2p/CRE/Hygro cells were seeded at a density of 5,000 cells/well in DMEM with 1% FBS and 1 U/mL adenosine deaminase (ADA) (Sigma). After 18 h, the cells were treated with 3 nM CGS21680 plus a series dilution of A2AR antagonist, the compounds disclosed herein at the concentration of 0.1˜10000 nM, prepared in DMEM with 1% FBS. After 5 h incubation, the luciferase activity in cells were measured using the Bright-Glo Luciferase Assay System (Promega) according to manufacturer's instructions. The luminescence signal was measured using a PHERAstar FS plate reader (BMG Labtech). […] Maximal luminescence intensity was determined in the presence of 3 nM CGS21680 and was set as 100%. The IC50 value was calculated from a dose dependent inhibition curve across the range of compound concentrations.

human A2A receptor (A2AR), sequence (P29274 whole entry): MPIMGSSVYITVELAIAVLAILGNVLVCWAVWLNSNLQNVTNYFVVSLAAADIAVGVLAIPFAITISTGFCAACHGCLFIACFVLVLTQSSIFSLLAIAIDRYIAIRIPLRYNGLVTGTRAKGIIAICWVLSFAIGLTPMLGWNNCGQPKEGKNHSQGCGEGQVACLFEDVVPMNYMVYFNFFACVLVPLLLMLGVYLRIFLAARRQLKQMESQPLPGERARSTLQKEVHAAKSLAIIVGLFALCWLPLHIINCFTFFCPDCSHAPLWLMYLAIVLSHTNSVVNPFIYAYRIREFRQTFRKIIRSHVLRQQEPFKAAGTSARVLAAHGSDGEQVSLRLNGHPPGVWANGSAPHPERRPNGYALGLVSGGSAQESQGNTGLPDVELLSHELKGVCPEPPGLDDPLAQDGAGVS

Point of comparison: `Nc1nc2c(cnn2C(C(=O)NC2CCc3ccccc32)c2ccccc2)c2nc(-c3ccco3)nn12` (stereo not drawn) [Example 14, 2-(5-amino-2-(furan-2-yl)-7H-pyrazolo[4,3-e][1,2,4]triazolo[1,5-c]pyrimidin-7-yl)-N-(2,3-dihydro-1H-inden-1-yl)-2-phenylacetamide], IC50 6.1 nM. Against it:
- CC(C(=O)NCCN1CCOCC1)(c1ccccc1)n1ncc2c1nc(N)n1nc(-c3ccco3)nc21 (stereo not drawn) [Example 41, 2-(5-amino-2-(furan-2-yl)-7H-pyrazolo[4,3-e][1,2,4]triazolo[1,5-c]pyrimidin-7-yl)-N-(2-morpholinoethyl)-2-phenylpropanamide] — 1.5-fold higher, 9.3 nM
- CC(C(=O)NCCC1CCOC1)(c1ccccc1)n1ncc2c1nc(N)n1nc(-c3ccco3)nc21 (stereo not drawn) [Example 74, 2-(5-amino-2-(furan-2-yl)-7H-pyrazolo[4,3-e][1,2,4]triazolo[1,5-c]pyrimidin-7-yl)-2-phenyl-N-(2-(tetrahydrofuran-3-yl)ethyl)propanamide] — 1.8-fold higher, 11.1 nM
- CC(C)(C(=O)NCC1(O)COC1)n1ncc2c1nc(N)n1nc(-c3ccco3)nc21 [Example 138, 2-(5-amino-2-(furan-2-yl)-7H-pyrazolo[4,3-e][1,2,4]triazolo[1,5-c]pyrimidin-7-yl)-N-((3-hydroxyoxetan-3-yl)methyl)-2-methylpropanamide] — 5.4-fold higher, 33.2 nM
- CC(C(=O)N[C@@H]1CCCNC1)(c1ccccc1)n1ncc2c1nc(N)n1nc(-c3ccco3)nc21 (stereo partly drawn) [Example 67, 2-(5-amino-2-(furan-2-yl)-7H-pyrazolo[4,3-e][1,2,4]triazolo[1,5-c]pyrimidin-7-yl)-2-phenyl-N—((R)-piperidin-3-yl)propanamide] — 12-fold higher, 75.5 nM
- CC(C(=O)N[C@H]1CCCC[C@H]1O)(c1ccccc1)n1ncc2c1nc(N)n1nc(-c3ccco3)nc21 (stereo partly drawn) [Example 58A, 2-(5-amino-2-(furan-2-yl)-7H-pyrazolo[4,3-e][1,2,4]triazolo[1,5-c]pyrimidin-7-yl)-N-((1S,2R)-2-hydroxycyclohexyl)-2-phenylpropanamide] — 2.3-fold higher, 14.2 nM
- Nc1nc2c(cnn2C(C(=O)NCc2ccccc2OC(F)(F)F)c2ccccc2)c2nc(-c3ccco3)nn12 (stereo not drawn) [Example 8, 2-(5-amino-2-(furan-2-yl)-7H-pyrazolo[4,3-e][1,2,4]triazolo[1,5-c]pyrimidin-7-yl)-2-phenyl-N-(2-(trifluoromethoxy)benzyl)acetamide] — 3-fold lower, 2 nM
- C[C@](C(=O)NCc1cc(C(F)(F)F)ccn1)(c1ccccc1)n1ncc2c1nc(N)n1nc(-c3ccco3)nc21 [Example 143B, (R)-2-(5-amino-2-(furan-2-yl)-7H-pyrazolo[4,3-e][1,2,4]triazolo[1,5-c]pyrimidin-7-yl)-2-phenyl-N-((4-(trifluoromethyl)pyridin-2-yl)methyl)propanamide] — within 1.5-fold, 5.8 nM
- CNCCNC(=O)C(C)(c1ccccc1)n1ncc2c1nc(N)n1nc(-c3ccco3)nc21 (stereo not drawn) [Example 81, 2-(5-amino-2-(furan-2-yl)-7H-pyrazolo[4,3-e][1,2,4]triazolo[1,5-c]pyrimidin-7-yl)-N-(2-(methylamino)ethyl)-2-phenylpropanamide] — 20-fold higher, 120 nM
- CCC(C(=O)NCC1(O)COC1)(c1ccccc1)n1ncc2c1nc(N)n1nc(-c3ccco3)nc21 (stereo not drawn) [Example 103, 2-(5-amino-2-(furan-2-yl)-7H-pyrazolo[4,3-e][1,2,4]triazolo[1,5-c]pyrimidin-7-yl)-N-((3-hydroxyoxetan-3-yl)methyl)-2-phenylbutanamide] — the same, 6.1 nM
- COc1ccc(C(C)(C(=O)NCC2(O)COC2)n2ncc3c2nc(N)n2nc(-c4ccco4)nc32)cc1 (stereo not drawn) [Example 86, 2-(5-amino-2-(furan-2-yl)-7H-pyrazolo[4,3-e][1,2,4]triazolo[1,5-c]pyrimidin-7-yl)-N-((3-hydroxyoxetan-3-yl)methyl)-2-(4-methoxyphenyl)propanamide] — 14-fold higher, 85.9 nM
- Nc1nc2c(cnn2C(C(=O)Nc2ccccc2)c2ccccc2)c2nc(-c3ccco3)nn12 (stereo not drawn) [Example 3, 2-(5-amino-2-(furan-2-yl)-7H-pyrazolo[4,3-e][1,2,4]triazolo[1,5-c]pyrimidin-7-yl)-N,2-diphenylacetamide] — within 1.5-fold, 5.2 nM
